Patent US20190307783A1, “USE OF ANTIVIRALS TO INHIBIT PROTOZOAN VIRUSES” (priority 2016, published 2019)
“And” between values parts separate entries of the source, which are not always exact repeats. Equal values may be shown once. “Also recorded” adds a separate entry of the source.

How the values were obtained:
[1] = system: LRV2; assay: Virus levels in L. major strain 5-ASKH bearing LRV2; format: cell-based, Leishmania major; conditions: data not shown
Source text: A second line of inquiry would of course be the development of anti-LRV1 agents with improved potency.

[2] = HPLC test of 2CMA-TP degradation during the RDRP reaction; format: physicochemical; conditions: 1 hr incubation, 300 μM, n=3
Description: Incubation of the three LRV1 populations with 2CMA-TP reduced synthesis of both the full-length and small RDRP products (FIG. 22A, FIG. 22B, FIG. 23A, FIG. 23B, and FIG. 24). The synthesis of each product was quantitated and normalized to that obtained with drug-free controls, from which IC50s were calculated (Table 3). […] We were concerned that this arose artificially from 2CMA-TP degradation during the assay.
To study inhibition of the viral RDRP by 2CMA-TP, varying amounts of the compound were added to standard RDRP reaction mixtures. 2CMA-TP was custom synthesized by Jena Bioscience, and its identity was confirmed using electrospray ionization with a Fourier-transform mass spectrometer in negative ion mode (Thermo Scientific). The stock concentration of 2CMA-TP was calculated by UV absorption at 260 nm, assuming that its molar extinction coefficient was identical to ATP. To measure the amount of 2CMA-TP which is non-specifically hydrolyzed over the course of an RDRP reaction, mock reactions were run using LRV1− gradient fractions, cold UTP, and 300 μM 2CMA-TP. The 20-μL reactions were diluted to 80 μL with distilled water and immediately analyzed by HPLC as described below.

[3] = system: LRV1+ Lgy M4147 parasites; assay: Intracellular 2CMA-TP accumulation and retention in parasites (HPLC); format: in vitro ADME, Leishmania guyanensis; conditions: for Intracellular 2CMA-TP concentration: 18 hours, n=4
Source text: To account for the relative sensitivity of Lgy LRV1 to 2CMA compared to the insensitivity of LRV1 RDRP activity to inhibition by 2CMA-TP, we hypothesized that parasites take up and activate 2CMA, accumulating high 2CMA-TP concentrations. We first identified an HPLC protocol capable of resolving both synthetic 2CMA-TP and a smaller peak we presume to be 2CMA-DP from natural ribonucleotides and the internal standard, dGTP (FIG. 23A and FIG. 23B). Standard mixtures of known concentration were used to generate a standard curve relating peak area to 2CMA-TP amounts (FIG. 30). We then tested several protocols for extracting parasite nucleotides and determined that extraction with 1:1 acetonitrile:water performed best. Using this protocol, we compared the nucleotide profiles of LRV1+ Lgy grown in the presence or absence of 10 μM extracellular 2CMA for 18 hours, a time chosen because it corresponds to about two rounds of parasite replication. Under these conditions, we observed a peak co-eluting with synthetic 2CMA-TP that was absent from untreated parasites (FIG. 25B), establishing the parasite's capacity to phosphorylate 2CMA.
We then measured steady-state levels of intracellular 2CMA-TP following incubation of late-log-phase parasites with 2CMA for 18 hours. To determine the intracellular concentration of 2CMA-TP under these conditions, we measured the average volume of the parasites (roughly 23 fL). […] Over this range of concentrations, internal 2CMA-TP levels exceeded external 2CMA concentrations by 40- to 80-fold (FIG. 26A and FIG. 26B), attesting to the potency of the parasite's purine salvage pathway.
Cultures of WT or GFP-expressing LRV1+ Lgy M4147 were seeded at 2×10^5 cells/mL and analyzed when they reached early, mid, or late log phase. From each sample, one aliquot was analyzed by light scattering on a flow-cytometer, while another was immobilized by treatment with 20 mM sodium azide and imaged by spinning-disk confocal microscopy {Ellenberger, 1987}. Cell volumes were calculated using a custom ImageJ script {Schindelin, 2012}. A standard curve relating forward scattering intensity to measured volume was developed and used to estimate metabolite concentrations (FIG. 29).
For drug metabolism studies, 10^8 late-log phase parasites in 5 mL of Schneider's medium were treated with indicated drug concentrations for 20 hours. For accumulation assays, 10^8 cells were harvested immediately. In ‘washout’ experiments, one 5 mL culture was grown for each replicate of each time point. These cultures were spun down, resuspended in drug-free medium, centrifuged again, and finally suspended in 5 mL drug-free Schneider's medium. After 2, 4, or 8 hours, nucleotides were extracted from 10^8 parasites from individual washed cultures and analyzed by HPLC.
For each sample, cells were collected by centrifugation at 2200×g, 4° C. for 5 minutes, re-suspended in 1 mL ice-cold PBS and re-centrifuged. The cell pellet was gently re-suspended in 100 μL ice-cold 0.5×PBS plus 7 nmol dGTP as a recovery and elution standard. […] Cells were immediately lysed by rapidly re-suspending in 900 μL ice-cold 5:4 acetonitrile:water mixture {Au, 1989} and vortexing continuously for 5 min at 4° C. Insoluble debris was pelleted at 16,000×g for 5 minutes and the clarified extract was transferred to a fresh tube. The solvent was removed by evaporation in a SAVANT SpeedVac concentrator (Thermo Scientific) with the heater off and the vacuum pump refrigeration on. Samples were re-suspended with 80 μL distilled water, flash frozen, and stored at −80° C. prior to HPLC analysis.
Nucleoside di- and tri-phosphates were separated by isocratic HPLC as described {Moal, 1989}. […]

[4] = biological target: Lgy LRV1 RDRP (Leishmania RNA virus 1 - 4, UniProt Q02382); assay: RDRP assay of purified virions, [α-32P]UTP incorporation; format: biochemical, Leishmania RNA virus 1 (Lgy strain M4147); conditions: highest concentration tested 600 μM
Lgy LRV1 RDRP, sequence (Q02382 whole entry): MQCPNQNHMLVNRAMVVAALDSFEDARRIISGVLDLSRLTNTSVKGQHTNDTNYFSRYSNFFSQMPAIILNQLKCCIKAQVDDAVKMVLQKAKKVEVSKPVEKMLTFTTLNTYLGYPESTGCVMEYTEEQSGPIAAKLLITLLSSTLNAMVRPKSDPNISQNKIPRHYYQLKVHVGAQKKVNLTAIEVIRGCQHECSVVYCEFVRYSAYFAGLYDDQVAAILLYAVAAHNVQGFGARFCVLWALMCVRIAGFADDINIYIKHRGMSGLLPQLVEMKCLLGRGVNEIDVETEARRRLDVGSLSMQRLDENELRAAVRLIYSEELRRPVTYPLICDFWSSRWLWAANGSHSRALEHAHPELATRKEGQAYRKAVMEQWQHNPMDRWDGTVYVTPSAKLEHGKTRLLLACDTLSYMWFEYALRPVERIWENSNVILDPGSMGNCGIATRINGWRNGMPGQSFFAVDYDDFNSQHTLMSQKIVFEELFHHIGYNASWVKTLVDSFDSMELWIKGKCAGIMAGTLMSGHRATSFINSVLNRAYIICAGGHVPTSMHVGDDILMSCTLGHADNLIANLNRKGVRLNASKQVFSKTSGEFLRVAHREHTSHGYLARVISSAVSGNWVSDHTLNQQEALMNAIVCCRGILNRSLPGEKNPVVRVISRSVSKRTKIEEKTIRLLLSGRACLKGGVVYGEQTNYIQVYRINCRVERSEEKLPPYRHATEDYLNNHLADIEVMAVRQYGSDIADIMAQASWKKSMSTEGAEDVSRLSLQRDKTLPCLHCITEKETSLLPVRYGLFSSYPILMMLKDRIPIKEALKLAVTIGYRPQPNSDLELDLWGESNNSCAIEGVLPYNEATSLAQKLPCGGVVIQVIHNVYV
Description: RDRP assays were carried out with LRV1 virions purified from Lgy strain M4147 by an established cesium chloride (CsCl) equilibrium ultracentrifugation procedure {Widmer, 1989; Widmer, 1990}. Following separation, virus particles were detected and quantified by their reactivity with an anti-capsid antibody (FIG. 21). We reproducibly observed three overlapping ‘peaks’, designated low-, medium-, and high-density (LD, MD and HD) in order of increasing density. […] The densities of the Lgy LRV1 LD, MD and HD peaks were 1.29, 1.36 and 1.41 g/mL, in good agreement with the densities of L-A virus particles bearing ssRNA- and dsRNA- (1.31 and 1.41 g/mL, respectively) {Esteban, 1986}. […]
To measure RDRP activity, purified virions were allowed to incorporate [α-^32P]UTP in the presence of the remaining nucleoside triphosphates for 1 hour, a time chosen to allow one round of transcription or replication of the viral genome {Widmer, 1990}. RNA was purified and separated by native gel electrophoresis, and the products were visualized and quantified. […]
RDRP activity of purified virions was measured using an [α-^32P]UTP incorporation assay described previously{Widmer, 1990}. […] The standards lane was excised and stained with ethidium bromide, while the radiolabeled products were detected by exposing an imaging plate for 24 hours and reading it with a FLA-5100 phosphoimager (Fujifilm, Tokyo, Japan). […]

[5] = system: Zika virus; conditions: cultured mammalian cells; read-out: EC50 against Zika virus; cited from earlier work
[6] = animal models; cited from earlier work
[7] = system: LRV1 (LgyLRV1 capsid levels); assay: microbe, parasite or virus in culture
Source text: Because LRV1 (like most Totiviridae) is not shed from the cell (33, 34), we developed a flow cytometric assay to measure intracellular LRV1 capsid levels on a per cell basis. To detect LRV1 we used binding to a rabbit anti-LgyLRV1 capsid antiserum (35) followed by detection with Alexa Fluor488-conjugated goat anti-rabbit IgG.
(§1) Parasites were inoculated at 2×10^5 cells/mL into Schneider's media lacking supplemental adenine.
For capsid flow cytometry, 10^7 cells were fixed at room temperature using 2% (wt/vol) paraformaldehyde (Thermo Fisher Scientific) in PBS for 2 minutes. They were then incubated in blocking buffer [10% (vol/vol) normal goat serum (Vector Laboratories, Burlingame, Calif., USA) and 0.2% TRITON X-100 in PBS] for 30 minutes at room temperature. Anti-LgyLRV1 capsid antibody (35) was added (1:20,000 dilution) and incubated at room temperature for 1 hour. After two washes with PBS, cells were resuspended in 200 μL PBS with Alexa Fluor488-labeled goat anti-rabbit IgG (Alexafluor, Invitrogen; 1:1,000; or Thermo Fisher Scientific; 1:2,000 dilution), and incubated 1 hour at room temperature. After two additional washes with PBS, cells were subjected to flow cytometry, gating for single cells using forward and side scatter and the data analyzed using […] software (BD Bioscience, San Jose, Calif., USA).

[8] = system: L. guyanensis (LgyLRV1+); assay: Drug-inhibition test: growth of LgyLRV1+ parasites; format: cell-based, Leishmania guyanensis
Description: These compounds were examined for their ability to inhibit the growth of LgyLRV1^+ and virus levels by LRV1 capsid flow cytometry.
Most studies were performed using luciferase-expressing transfectants of L. guyanensis (MHOM/BR/78/M4147) described previously [LRV1^+ LgyM4147/SSU:IR2SAT-LUC(b)c3 and LRV^−LgyM4147/pX63HYG/SSU:IR2SAT-LUC(b)c4] (54); these lines are termed LgyLRV1^+ and LgyLRV1^−, respectively. Two strains of LRV1^+L. braziliensis were examined: LEM2780 (MHOM/BO/90/CS) and LEM3874 (MHOM/BO/99/IMT252 no. 3) (12). Parasites were grown in Schneider's media (Sigma Aldrich, St. Louis, Mo., USA) prepared according to the supplier's instructions with pH adjusted to 6.5 and supplemented with 0.76 mM hemin, 2 μg/mL biopterin, 50 U/mL penicillin, 50 μg/mL streptomycin, and 10% (vol/vol) heat-inactivated FBS. Cell concentrations were determined using a Coulter Counter ([…], Indianapolis, Ind., USA).
as §1

For `C[C@@]1(O)[C@H](O)[C@@H](COP(=O)(O)OP(=O)(O)OP(=O)(O)O)O[C@H]1n1cnc2c(N)ncnc21` [Compound 2CMA-TP, 2′-C-methyladenosine triphosphate], the “Inhibition of LRV2 virus levels, in words” value [1] was “no inhibition of virus levels”, the “2CMA-TP degraded (to apparent 2CMA-DP) during the assay” value [2] was 3.7±0.6% and the “Intracellular 2CMA-TP concentration” value ([3]; 1 μM external 2CMA) was 78 ± 9.0 µM and 80 µM. The “Intracellular 2CMA-TP concentration” value ([3]; 3 μM external 2CMA) was 152 ± 43 µM, the “Intracellular 2CMA-TP concentration” value ([3]; 10 μM external 2CMA) was 410 ± 110 µM and 410 µM and the “Accumulated 2CMA-TP retained” value ([3]; 4 hours in drug-free medium after 18 hours in 10 μM 2CMA) was “approximately 50%”. For the same compound, the “Intrinsic 8 hour 2CMA-TP concentration” value ([3]; 8 hours in drug-free medium, corrected for population growth) was 230 ± 130 µM and the “Average 2CMA-TP concentration after washout” value ([3]; 8 hours in drug-free medium, not corrected for parasite replication) was 170 ± 100 µM.
For `Nc1ncnc2c1ncn2[C@H]1C[C@H](O)[C@@H](COP(=O)(O)OP(=O)(O)OP(=O)(O)O)O1` [dATP], the “Inhibition of RDRP activity, in words” value [4] was “failed to inhibit; also recorded: completely inactive”.
In the case of `C[C@@]1(O)[C@H](O)[C@@H](CO)O[C@H]1n1ccc2c(N)ncnc21` [2′C-methyl-7-deaza-adenosine, 7-deaza-2′-C-methyladenosine], the EC50 [5] is listed as 10 µM, the Serum half-life [6] is listed as 1.6 h and the activity at 100 µM ([7]; 48 h, read-out: Percent control (LRV1 capsid)) is listed as 10%. The “Selectivity for LRV1 versus L. guyanensis growth inhibition” value ([7]; EC50 growth vs EC50 LRV1 capsid) was over 20 fold, the “LRV1 capsid (geometric mean FU)” value ([7]; LgyLRV1+, tested at 100 μM, 2 days) was 27 FU and the EC50 ([7]; read-out: EC50 for LRV1 capsid inhibition) was about 5 µM. For the same compound, the “Reduction in LRV1 capsid levels” value ([7]; tested at 100 μM) was 12 fold, the activity at 100 µM ([8]; Leishmania guyanensis, 48 h, LgyLRV1+, tested at 100 μM, growth after 2 days, read-out: Percent control (density)) was 20% and the EC50 ([8]; Leishmania guyanensis, L. guyanensis, relative cellular growth rate, titration, read-out: EC50 for parasite growth) was over 100 µM. The inhibition at 100 µM ([8]; Leishmania guyanensis, tested at 100 μM, read-out: Inhibition of parasite density) was 90% and the “Density (cells/mL)” value ([8]; LgyLRV1+, tested at 100 μM, growth after 2 days) was 3.38E+6 cells/mL.
